Target: T1, acyl-CoA:cholesterol O-acyltransferase (ACAT) (Oryctolagus cuniculus, UniProt G1SFD9)
T1 construct: The intestinal mucosa of a white rabbit was homogenized and microsomal fraction was obtained by stepwise centrifugation; from tissue; host or cells: intestinal mucosa of white rabbit, microsomal fraction
T1 sequence (G1SFD9 1-524): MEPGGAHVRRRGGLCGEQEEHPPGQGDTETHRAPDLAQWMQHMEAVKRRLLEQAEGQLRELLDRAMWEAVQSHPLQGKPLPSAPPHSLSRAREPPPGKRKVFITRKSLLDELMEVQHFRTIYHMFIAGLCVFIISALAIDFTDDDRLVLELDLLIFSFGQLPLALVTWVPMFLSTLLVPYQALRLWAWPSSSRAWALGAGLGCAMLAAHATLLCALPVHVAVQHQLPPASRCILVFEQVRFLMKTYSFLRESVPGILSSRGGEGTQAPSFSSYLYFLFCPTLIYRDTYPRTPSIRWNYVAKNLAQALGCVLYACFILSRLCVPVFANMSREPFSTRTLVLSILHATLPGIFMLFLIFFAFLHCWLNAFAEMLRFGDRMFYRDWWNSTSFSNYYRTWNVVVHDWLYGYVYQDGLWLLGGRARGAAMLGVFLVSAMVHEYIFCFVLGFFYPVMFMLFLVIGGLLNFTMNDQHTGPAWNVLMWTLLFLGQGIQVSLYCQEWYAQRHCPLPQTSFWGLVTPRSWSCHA
Assay: Inhibitory activity on acyl-CoA:cholesterol O-acyltransferase (ACAT), intestinal mucosa microsomal fraction, [1-14C]oleyl-CoA incorporation into cholesterol esters
Type: biochemical, white rabbit
Settings: read-out: Inhibition rate %
Protocol: Inhibitory activity on acyl-CoA:cholesterol Oacyltransferase (ACAT)
The enzyme used in the test was prepared according to the method of Heider et al. [J. Lipid, Res. 24, 1127 (1983)]. The intestinal mucosa of a white rabbit was homogenized and microsomal fraction was obtained by stepwise centrifugation. The microsomal fraction was suspended in 0,154M phosphate buffer (pH 0 7.4) and stored at -80° C. until use.
ACAT activity was determined by a modification of the method of Helgerud et al. [J. Lipid Res. 22, 271 (1981)] by measuring radioactivity incorporated into cholesterol esters from [1-14C]oleyl-CoA, as an indication. As to the ACAT-inhibiting activity of each compound to be tested, the inhibition rate was calculated by the following equation.

inhibition at 0.01 µM	inhibition at 1 µM	SMILES
49.8%	–	CCc1cccc(CC)c1NC(=O)Nc1oc2ccc(F)cc2c1-c1ccccc1Cl [Compound 1]
58.3%	–	CC(C)c1cccc(C(C)C)c1NC(=O)Nc1oc2ccc(F)cc2c1-c1ccccc1Cl [Compound 2, N-[3-(2-Chlorophenyl)-5-fluorobenzofuran-2-yl]-N'-(2,6-diisopropylphenyl)urea]
–	77.9%	O=C(Nc1ccccc1)Nc1oc2ccc(Cl)cc2c1-c1ccccc1Cl [Compound 4, N-[5-Chloro-3-(2-chlorophenyl)benzofuran-2-yl]-N'-phenylurea]
15.4%	98.5%	Cc1ccccc1NC(=O)Nc1oc2ccc(Cl)cc2c1-c1ccccc1Cl [Compound 5, N-[5-Chloro-3-(2-chlorophenyl)benzofuran-2-yl]-N'-(2-methylphenyl)urea]
37.2%	99.1%	O=C(Nc1ccccc1C(F)(F)F)Nc1oc2ccc(Cl)cc2c1-c1ccccc1Cl [Compound 7, N-[5-Chloro-3-(2-chlorophenyl)benzofuran-2-yl]-N'-(2-trifluoromethylphenyl)urea]
24.9%	97.4%	COc1ccccc1NC(=O)Nc1oc2ccc(Cl)cc2c1-c1ccccc1Cl [Compound 8, N-[5-Chloro-3-(2-chlorophenyl)benzofuran-2-yl]-N'-(2-methoxyphenyl)urea]
84.9%	99.4%	CC(C)c1cccc(C(C)C)c1NC(=O)Nc1oc2ccc(Cl)cc2c1-c1ccccc1Cl [Compound 13, N-[5-Chloro-3-(2-chlorophenyl)benzofuran-2-yl]-N'-(2,6-diisopropylphenyl)urea]
76.8%	99.4%	Cc1cccc(C(C)C)c1NC(=O)Nc1oc2ccc(Cl)cc2c1-c1ccccc1Cl [Compound 15, N-[5-Chloro-3-(2-chlorophenyl)benzofuran-2-yl]-N'-(2-isopropyl-6-methylphenyl)urea]
71.3%	–	Cc1cccc(N(C)C)c1NC(=O)Nc1oc2ccc(Cl)cc2c1-c1ccccc1Cl [Compound 19, N-[5-chloro-3-(2-chlorophenyl)benzofuran-2-yl]-N'-(2-dimethylamino-6-methylphenyl)urea]
69.3%	–	Cc1ccc2oc(NC(=O)Nc3c(C(C)C)cccc3C(C)C)c(-c3ccccc3Cl)c2c1 [Compound 22, N-[3-(2-Chlorophenyl)-5-methylbenzofuran-2-yl]-N'-(2,6-diisopropylphenyl)urea]
73.3%	–	CCc1ccc2oc(NC(=O)Nc3c(C(C)C)cccc3C(C)C)c(-c3ccccc3Cl)c2c1 [Compound 25, N-[3-(2-Chlorophenyl)-5-ethylbenzofuran-2-yl]-N'-(2,6-diisopropylphenyl)urea]
41.2%	–	CCc1ccc2oc(NC(=O)Nc3ccc(F)cc3F)c(-c3ccccc3Cl)c2c1 [Compound 26, N-[-3-(2-Chlorophenyl)-5-ethylbenzofuran-2-yl]-N'-(2,4-difluorophenyl)urea]
63.5%	–	CCCCCCc1ccc2oc(NC(=O)Nc3c(C(C)C)cccc3C(C)C)c(-c3ccccc3Cl)c2c1 [Compound 27, N-[3-(2-Chlorophenyl)-5-n-hexylbenzofuran-2-yl]-N'-(2,6-diisopropylphenyl)urea]
58.4%	–	COc1ccc2oc(NC(=O)Nc3c(C(C)C)cccc3C(C)C)c(-c3ccccc3Cl)c2c1 [Compound 30, N-[3-(2-Chlorophenyl)-5-methoxybenzofuran-2-yl]-N'-(2,6-diisopropylphenyl)urea]
37.6%	98.9%	Cc1cc2oc(NC(=O)Nc3c(C)cccc3C)c(-c3ccccc3Cl)c2cc1C [Compound 36, N-[3-(2-Chlorophenyl)-5,6-dimethylbenzofuran-2-yl]-N'-(2,6-dimethylphenyl)urea]
77.2%	99.5%	Cc1cc2oc(NC(=O)Nc3c(C(C)C)cccc3C(C)C)c(-c3ccccc3Cl)c2cc1C [Compound 38, N-[3-(2-Chlorophenyl)-5,6-dimethylbenzofuran-2-yl]-N'-(2,6-diisopropylphenyl)urea]
70.9%	99.4%	Cc1cc2oc(NC(=O)Nc3c(C)cccc3C(C)C)c(-c3ccccc3Cl)c2cc1C [Compound 39]

inhibition at 0.01 µM	inhibition at 1 µM	SMILES
52.1%	99.5%	Cc1cc(C)c2oc(NC(=O)Nc3c(C(C)C)cccc3C(C)C)c(-c3ccccc3Cl)c2c1 [Compound 43, N-[3-(2-Chlorophenyl)-5,7-dimethylbenzofuran-2-yl]-N'-(2,6-diisopropylphenyl)urea]
–	94%	Cc1cc(C)c(NC(=O)Nc2oc3c(C)cc(C)cc3c2-c2ccccc2Cl)c(C)c1 [Compound 45, N-[3-(2-Chlorophenyl)-5,7-dimethylbenzofuran-2-yl]-N'-(2,4,6-trimethylphenyl)urea]
–	92.7%	Cc1cc(C)c2oc(NC(=O)Nc3ccc(F)cc3F)c(-c3ccccc3Cl)c2c1 [Compound 46, N-[3-(2-Chlorophenyl)-5,7-dimethylbenzofuran-2-yl]-N'-(2,4-difluorophenyl)urea]
–	93%	Cc1cc(C)c2oc(NC(=O)Nc3c(F)cccc3F)c(-c3ccccc3Cl)c2c1 [Compound 47, N-[3-(2-Chlorophenyl)-5,7-dimethylbenzofuran-2-yl]-N'-(2,6-difluorophenyl)urea]
6.8%	95.6%	Cc1cc(C)c2oc(NC(=O)Nc3c(F)cc(F)cc3F)c(-c3ccccc3Cl)c2c1 [Compound 48, N-[3-(2-Chlorophenyl)-5,7-dimethylbenzofuran-2-yl]-N'-(2,4,6-trifluorophenyl)urea]
51.9%	99.1%	Cc1cc(C)c2oc(NC(=O)Nc3c(Cl)cccc3Cl)c(-c3ccccc3Cl)c2c1 [Compound 49, N-[3-(2-Chlorophenyl)-5,7-dimethylbenzofuran-2-yl]-N'-(2,6-dichlorophenyl)urea]
43.7%	–	CC(C)c1cccc(C(C)C)c1NC(=O)Nc1oc2cc3c(cc2c1-c1ccccc1Cl)CCC3 [Compound 53, N-[3-(2-Chlorophenyl)-6,7-dihydro-5H-cyclopenta[f]benzofuran-2-yl]-N'-(2,6-diisopropylphenyl)urea]
32.1%	–	O=C(Nc1ccc(F)cc1F)Nc1oc2cc3c(cc2c1-c1ccccc1Cl)CCC3 [Compound 55, N-[3-(2-Chlorophenyl)-6,7-dihydro-5H-cyclopenta[f]benzofuran-2-yl]-N'-(2,4-difluorophenyl)urea]
69.2%	–	CC(C)c1cccc(C(C)C)c1NC(=O)Nc1oc2ccc(Cl)cc2c1-c1ccccc1F [Compound 58, N-[5-Chloro-3-(2-fluorophenyl)benzofuran-2-yl]-N'-(2,6-diisopropylphenyl)urea]
82.6%	–	CCc1cccc(CC)c1NC(=O)Nc1oc2ccc(Cl)cc2c1-c1ccccc1C [Compound 60, N-[5-Chloro-3-(2-methylphenyl)benzofuran-2-yl]-N'-(2,6-diethylphenyl)urea]
65.6%	–	Cc1ccccc1-c1c(NC(=O)Nc2c(C(C)C)cccc2C(C)C)oc2ccc(Cl)cc12 [Compound 61, N-[5-Chloro-3-(2-methylphenyl)benzofuran-2-yl]-N'-(2,6-diisopropylphenyl)urea]
91.6%	–	CCc1cccc(CC)c1NC(=O)Nc1oc2ccc(Cl)cc2c1-c1ccccc1SC [Compound 62, N-[5-Chloro-3-(2-methylthiophenyl)benzofuran-2-yl]-N'-(2,6-diethylphenyl)urea]
72.1%	–	CSc1ccccc1-c1c(NC(=O)Nc2c(C(C)C)cccc2C(C)C)oc2ccc(Cl)cc12 [Compound 63, N-[5-Chloro-3-(2-methylthiophenyl)benzofuran-2-yl]-N'-(2,6-diisopropylphenyl)urea]
56.5%	99.1%	CCc1cccc(CC)c1NC(=O)Nc1sc2ccc(Cl)cc2c1-c1ccccc1Cl [Compound 65, N-[5-Chloro-3-(2-chlorophenyl)-1-benzothiophen-2-yl]-N'-(2,6-diethylphenyl)urea]
60.6%	–	CCc1cccc(CC)c1NC(=O)Nc1sc2ccc(C)cc2c1-c1ccccc1Cl [Compound 72, N-[3-(2-Chlorophenyl)-5-methyl-1-benzothiophen-2-yl]-N'-(2,6-diethylphenyl)urea]
71%	–	CCc1cccc(CC)c1NC(=O)Nc1sc2ccc(C(C)C)cc2c1-c1ccccc1Cl [Compound 76, N-[3-(2-Chlorophenyl)-5-isopropyl-1-benzothiophen-2-yl]-N'-(2,6-diethylphenyl)urea]
51.7%	–	CC(C)c1ccc2sc(NC(=O)Nc3c(C(C)C)cccc3C(C)C)c(-c3ccccc3Cl)c2c1 [Compound 77, N-[3-(2-chlorophenyl)-5-isopropyl-1-benzothiophen-2-yl]-N'-(2,6-diisopropylphenyl)urea]
